The source of these data is patent publication US9732320B2, “Selective differentiation, identification, and modulation of human TH17 cells” (THE BRIGHAM AND WOMEN'S HOSPITAL, INC., priority 2008, dated 2017).

The test system of one test is TH1 cells. Kind of test: Chemotaxis chamber assay, TH1 cells. The class given is cell-based. The conditions noted are these: 10^−8M of LTB4 in the lower wells, 2 hr. The protocol: (§1) TH17 or TH1 cells alone or together with different concentrations of LTB4 inhibitor, U75-302, were added to the upper wells of chemotaxis chambers with 10^−8M of LTB4 in the lower wells. Cells were kept at 37° C. in 10% CO2 for 2 hr. Cells from the lower chamber were then stained with anti-CD4 antibody and stimulated for 4 hr with PMA/ionomycin in the presence of Golgi Stop. Cells were permeabilized and stained intracellularly for IL-17 or IFN-γ. The chemotactic index was calculated by dividing the number of CD4^+ IL-17^+ (for TH17 cells) or CD4^+ IFN-γ+ (for TH1 cells) migrated cells in LTB4-containing wells by the number of CD4^+ IL-17^+ (for TH17 cells) or CD4^+ IFN-γ+ (for Th1 cells) cells that migrated spontaneously to media alone.

A further test concerns TH17 cells. The test is described as follows: Chemotaxis chamber assay, TH17 cells. The class given is cell-based. The protocol: as §1
Another test has as its target BLT1 (Homo sapiens, UniProt Q15722). The note with it: Richards et al. 1989; cited from earlier work.
Another test concerns human naïve CD4+ T cells. Kind of test: Differentiation assay: naïve CD4+ T cells stimulated with anti-CD3/anti-CD28 plus cytokines for seven days; ELISA and intracytoplasmic staining. The format is cell-based. The conditions noted are these: for IFN-β secretion from naïve T cells / IL-17A secretion from naïve CD4+ T cells: ELISA; for IL-17A secretion from naïve CD4+ T cells: serum-free medium. An excerpt:
(§2) Error bars represent the standard deviation among three independent experiments using T cells from three unrelated subjects.
(§3) PBMCs were obtained from the peripheral blood of healthy subjects or from cord blood (AllCells) in compliance with institutional IRB protocols. CD4+ T cells were subsequently isolated by negative selection using magnetic beads (Miltenyi Biotech Inc., Auburn, Calif.). Naïve (CD25^− CD62L^+ CD45RA^hi) and central memory (CD25^− CD62L^+ CD45RA^−) CD4^+ T cells were obtained by staining with the following antibodies: CD62L-FITC, CD4-PerCP, CD45RA-PE-Cy7, CD25-APC-Cy7 (BD Pharmingen, San Diego, Calif.) and were sorted on a FACS Aria (BD Biosciences, Palo Alto, Calif.).
(§4) Naïve or central memory CD4^+ T cells were stimulated with plate-bound anti-CD3 and soluble CD28 monoclonal antibodies (1 μg/ml, each) in serum-free X-VIVO15 medium (Biowhittaker Inc., Walkersville, Md.) and cytokines (IL-6, 25 ng/ml; TGF-β, 5 ng/ml; IL-1β, 12.5 ng/ml; IL-21, 25 ng/ml; IL-23, 25 ng/ml) for a period of seven days, at which point supernatants were collected and tested by ELISA for IFN-β (BD Biosciences) or IL-17A (eBioscience, San Diego, Calif.) using paired antibodies. Intracytoplasmic staining was performed using standard methodologies and anti-IL-17-APC (R&D Systems, Minneapolis, Minn.) and anti-IFN-β-PE (BD Biosciences) antibodies.

Test [1] has as its system human central memory CD4+ T cells. The test is described as follows: Differentiation assay: central memory CD4+ T cells (TCM) stimulated with anti-CD3/anti-CD28 plus cytokines for seven days; ELISA. The format is cell-based.
Text: as §2, §3, §4

The test system of another test is naïve human CD4+ T cells. Kind of test: Quantitative RT-PCR of stimulated naïve CD4+ T cells from peripheral blood. The class given is cell-based. The conditions noted are these: for IL-23 receptor up-regulation: stimulated naïve CD4+ T cells; for IL-22 mRNA: absence of exogenous IL-23. The protocol: The mean fold-induction (relative to T cells stimulated in the absence of exogenous cytokines) and standard error among three independent experiments using T cells from three unrelated subjects are represented.
as §4
All primers and probes were obtained from Applied Biosystems (Foster City, Calif.), and used according to standard methodologies.

In the next test the test system is naïve cord blood T cells. Kind of test: Quantitative RT-PCR of stimulated naïve CD4+ T cells from cord blood. The class given is cell-based, human. The note with it: seven days. The protocol: Sorted T cells were stimulated for seven days in the presence of the indicated cytokines, at which point RNA was collected and levels of IL-17A and RORC2 were measured by quantitative RT-PCR. Mean expression and standard error are reported based on three independent experiments using cord blood from three distinct donors.
as §3
Naïve or central memory CD4^+ T cells were stimulated with plate-bound anti-CD3 and soluble CD28 monoclonal antibodies (1 μg/ml, each) in serum-free X-VIVO15 medium (Biowhittaker Inc., Walkersville, Md.) and cytokines (IL-6, 25 ng/ml; TGF-β, 5 ng/ml; IL-1β, 12.5 ng/ml; IL-21, 25 ng/ml; IL-23, 25 ng/ml) for a period of seven days, at which point supernatants were collected and tested by ELISA for IFN-β (BD Biosciences) or IL-17A (eBioscience, San Diego, Calif.) using paired antibodies. […]

Sequence of BLT1 (Q15722 whole entry, species assumed): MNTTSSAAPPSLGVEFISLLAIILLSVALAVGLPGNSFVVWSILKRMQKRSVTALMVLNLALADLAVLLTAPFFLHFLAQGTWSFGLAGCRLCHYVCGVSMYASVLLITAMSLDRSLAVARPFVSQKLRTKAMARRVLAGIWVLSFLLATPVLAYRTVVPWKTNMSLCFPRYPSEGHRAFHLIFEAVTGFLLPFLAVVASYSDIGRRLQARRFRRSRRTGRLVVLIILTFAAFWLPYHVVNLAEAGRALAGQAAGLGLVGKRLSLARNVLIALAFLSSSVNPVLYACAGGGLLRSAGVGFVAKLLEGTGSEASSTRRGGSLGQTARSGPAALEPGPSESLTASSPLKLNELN

In the case of `CCCCC/C=C\C[C@@H](O)/C=C/C=C/C=C\[C@@H](O)CCCC(=O)O` [LTB4, Leukotriene B4], in the test on TH1 cells, the “Migration (chemotaxis) of TH1 cells” value is listed as “not”. Further, the “Migration (chemotaxis) of TH17 cells” value with TH17 cells (10^−8M of LTB4 in the lower wells, 2 hr) is recorded as “induced the selective migration”.

For `CCCCC/C=C\C[C@@H](O)/C=C/c1cccc(C[C@@H](O)CCCCO)n1` [U-75302, 6-(6-(3R-hydroxy-1E,5Z-undecadien-1-yl)-2-pyridinyl)-1,5S-hexandiol], the “Block of LTB4-induced migration of Th17 cells” value in the test on TH17 cells (different doses of antagonist in the upper wells) is listed as “blocked in a dose dependant manner”. Also, the “Binding to BLT1” value at BLT1 is recorded as “specifically binds BLT1”.

For IL-1β: cytokine, 12.5 ng/ml, in the test with human naïve CD4+ T cells, the “IFN-β secretion from naïve T cells” value is reported as “induced significant amounts of IFN-β secretion” and the “IL-17A secretion from naïve CD4+ T cells” value is given as “failed, however, to induce IL-17A secretion”. Besides, the “IL-17A secretion from TCM” value in test [1] was “induced the greatest amount of IL-17A secretion”. Besides, in the test on naïve human CD4+ T cells (naïve CD4+ T cells), the “IL-21 mRNA” value was “induced even greater amounts of IL-21 mRNA”. The IL-23 receptor up-regulation entry in the test on naïve human CD4+ T cells is recorded as “induced IL-23 receptor up-regulation”.

Turning to IL-6: cytokine, 25 ng/ml, the “IFN-β secretion from naïve T cells” value in the test on human naïve CD4+ T cells is listed as “induced significant amounts of IFN-β secretion”. For the same molecule, the “IL-17A secretion from TCM” value in test [1] is on record as “little effect”. For the same molecule, the “Inhibition of the FoxP3 induction by TGF-β” value with naïve human CD4+ T cells (cytokine added with TGF-β) is “inhibited”. The IL-23 receptor up-regulation result in the test on naïve human CD4+ T cells is reported as “induced IL-23 receptor up-regulation”.

On to IL-21: cytokine, 25 ng/ml, for which, in the test on human naïve CD4+ T cells, the “TH17 differentiation from naïve CD4+ T cells” value is “does not induce human TH17 differentiation”, the “IFN-β secretion from naïve T cells” value is “induced significant amounts of IFN-β secretion” and the “IL-17A secretion from naïve CD4+ T cells” value is on record as “unable to synergize with endogenous levels of TGF-β to promote IL-17 secretion”. In the test with naïve human CD4+ T cells (naïve CD4+ T cells), the “IL-21 mRNA” value is reported as “significantly up-regulated IL-21” and the “IL-22 mRNA” value is “induced IL-22 mRNA levels”. In addition, in the test on naïve human CD4+ T cells, the IL-23 receptor up-regulation result is recorded as “induced IL-23 receptor up-regulation”. Further, the “RORC2 mRNA” value with naïve cord blood T cells is “modestly induced RORC2”.

With “TGF-β: cytokine, 5 ng/ml; doses from 1 ng/ml to 100 ng/ml examined”, in the test on human naïve CD4+ T cells, the “TH17 differentiation from naïve CD4+ T cells” value is given as “all differentiation/proliferation was suppressed”. Further, in the test on naïve human CD4+ T cells (naïve CD4+ T cells), the “IL-21 mRNA” value is “suppressed the expression of IL-21 and IL-22 mRNA induced by IL-21”; the “IL-22 mRNA” value was “suppressed the expression of IL-21 and IL-22 mRNA induced by IL-21”. In addition, in the test with naïve human CD4+ T cells (naïve CD4+ T cells, seven days), the FoxP3 expression result is reported as “induced” and the “T-bet mRNA expression” value was “suppresses the induction of T-bet by IL-21”. Also, in the test with naïve human CD4+ T cells, the IL-23 receptor up-regulation entry is “not”.

B1: IL-23: cytokine, 25 ng/ml (protein, UniProt Q9NPF7 20-189; P29460 23-328, looked up)
Interleukin-23 subunit alpha: RAVPGGSSPAWTQCQQLSQKLCTLAWSAHPLVGHMDLREEGDEETTNDVPHIQCGDGCDPQGLRDNSQFCLQRIHQGLIFYEKLLGSDIFTGEPSLLPDSPVGQLHASLLGLSQLLQPEGHHWETQQIPSLSPSQPWQRLLLRFKILRSLQAFVAVAARVFAHGAATLSP
Interleukin-12 subunit beta: IWELKKDVYVVELDWYPDAPGEMVVLTCDTPEEDGITWTLDQSSEVLGSGKTLTIQVKEFGDAGQYTCHKGGEVLSHSLLLLHKKEDGIWSTDILKDQKEPKNKTFLRCEAKNYSGRFTCWWLTTISTDLTFSVKSSRGSSDPQGVTCGAATLSAERVRGDNKEYEYSVECQEDSACPAAEESLPIEVMVDAVHKLKYENYTSSFFIRDIIKPDPPKNLQLKPLKNSRQVEVSWEYPDTWSTPHSYFSLTFCVQVQGKSKREKKDRVFTDKTSATVICRKNASISVRAQDRYYSSSWSEWASVPCS
Turning to B1, the “IL-17A secretion from TCM” value in test [1] is “modestly enhance IL-17A secretion”.
